# Laboratory results reported in paper PMC5486603, “Toward molecular imaging of the free fatty acid receptor 1” (Acta Diabetologica, 2017).
# Entries after “also recorded” stand apart in the source; their conditions may differ.
# Assays:
# [1] = target: mouse GPR40 receptor; design: method as in data on file, AstraZeneca; conditions: mouse GPR40 overexpressing HEK293 cells, IP-One Tb HTRF; ref data on file, AstraZeneca; cited from earlier work
# [2] = design: method as in NCT01609582; conditions: oral dosing of 50 mg daily, individuals with Type 2 diabetes with cardiovascular risk factors, phase 3; ref NCT01609582; cited from earlier work
# [3] = target: T1, FFAR1 (Homo sapiens, UniProt O14842); experiment: In vitro radioligand binding and saturation binding in human exocrine pancreatic tissue homogenate; design: Isolated endocrine (75–95% islet purity) and exocrine tissues were homogenized in ice-cold 0.32 M sucrose; from tissue; host or cells: human exocrine pancreatic tissue, homogenate; conditions: for receptor specific binding: human pancreatic exocrine tissue, 2 nM labeled ligand
# Protocol: (§1) Isolated pancreatic islets and exocrine tissue were obtained within the Nordic network for Clinical Islet Transplantation laboratory in Uppsala, Sweden. The use of human tissue was approved by the Uppsala Ethical Review Board (#2011/473, #Ups 02-577).
# (§2) Isolated endocrine (75–95% islet purity) and exocrine tissues were homogenized in ice-cold 0.32 M sucrose by hand using a Dounce glass homogenizer to a final concentration of 6 mg/ml. 50–100 mg INS-1 xenografts were homogenized using a Polytron tissue homogenizer (Polytron® PT 3000, Kinematica AG, Littau-Luzern, Switzerland) in ice-cold 0.32 M sucrose at a concentration of 6 mg/ml and then by hand using a Dounce glass homogenizer. Protein concentration was determined using Bio-Rad Protein Assay (Bio-Rad Laboratories, Hercules, CA) with bovine serum albumin as standard. Aliquots of the homogenates were stored at −80 °C until used.
# (§3) One milligram of homogenized endocrine and exocrine tissue and 2 mg insulinoma tissue was incubated for 2 h at room temperature with 2 nM [^3H]AZ1 or 2 nM [^3H]AZ2 and PBS in a final incubation volume of 1 ml. Two milligram insulinoma tissue was incubated for 2 h at room temperature with 4 nM [^3H]TAK-875 and 50 mM TRIS (pH 7.4) in a final incubation volume of 1 ml. All three ligands were dissolved in ethanol. 10 µM of unlabeled AZ1 or TAK-875 was added for determination of non-specific binding. The samples were filtered using a Brandel M-48 cell harvester with Whatman GF/C filter (presoaked with PBS or 50 mM TRIS) and washed four times with 3 ml PBS or 50 mM TRIS (room temperature). Filters were put into scintillation vials, dried for 30 min before adding 10 ml Ultima Gold scintillation fluid (Perkin Elmer, Waltham, MA). The filters were shaken for 60 min and then counted in a β-counter (Packard Scintillator Tri-Carb 2100TR). The K d and B max values for [^3H]AZ1 binding were determined using concentrations of the tritiated ligand from 1 to 20 nM. All assay concentrations were replicated in triplicate, both total binding and non-specific binding.
# (§4) The specific binding for each concentration of radiolabeled ligand was calculated by subtracting the non-specific binding (average of three replicates) from the total binding (average of three replicates), and expressed as fmol or pmol/mg protein. The specific binding data were analyzed with curve-fitting software (GraphPad Prism version 5.04) to obtain K d and B max values.
# [4] = target: T1, FFAR1; experiment: In vitro radioligand binding and saturation binding in human islets of Langerhans homogenate; design: Isolated endocrine (75–95% islet purity) and exocrine tissues were homogenized in ice-cold 0.32 M sucrose; from tissue; host or cells: human isolated pancreatic islets (75–95% purity), homogenate; conditions: for islet-to-exocrine ratio: human islets vs human exocrine tissue; for FFAR1 density by specific binding: isolated human islets of Langerhans
# Protocol: as §1, §2, §3, §4
# [5] = target: T2, FFAR1 (Rattus norvegicus, UniProt Q8K3T4); experiment: In vitro radioligand binding in INS-1 xenograft tissue homogenate; conditions: for off-target (non-displaceable) binding: 2 nM [3H]AZ1 or [3H]AZ2, 4 nM [3H]TAK-875, 10 µM unlabeled ligand for non-specific binding; for specific bound radiolabeled ligand (FFAR1 density): 2 nM radiolabeled ligand
# T2 construct: 50–100 mg INS-1 xenografts were homogenized using a Polytron tissue homogenizer; from tissue; host or cells: INS-1 (rat insulinoma) xenograft tumours grown subcutaneously in Balbc nu/nu mice, homogenate
# Protocol: Rat insulinoma cell line INS-1 xenografts, explanted from immunodeficient mice postmortem, were used as a model of beta cells. Briefly, approximately 2 million INS-1 cells were injected subcutaneously in the right flank of Balbc nu/nu mice. Tumor growth was monitored by palpation, and when tumor diameter was 10 mm, the animals were euthanized and the INS-1 tumor explanted.
# as §2, §3, §4
# [6] = human exocrine tissue, representative saturation binding experiment (Fig. 5b)
# [7] = human islets, representative saturation binding experiment (Fig. 5a)
# T2 sequence (Q8K3T4 whole entry): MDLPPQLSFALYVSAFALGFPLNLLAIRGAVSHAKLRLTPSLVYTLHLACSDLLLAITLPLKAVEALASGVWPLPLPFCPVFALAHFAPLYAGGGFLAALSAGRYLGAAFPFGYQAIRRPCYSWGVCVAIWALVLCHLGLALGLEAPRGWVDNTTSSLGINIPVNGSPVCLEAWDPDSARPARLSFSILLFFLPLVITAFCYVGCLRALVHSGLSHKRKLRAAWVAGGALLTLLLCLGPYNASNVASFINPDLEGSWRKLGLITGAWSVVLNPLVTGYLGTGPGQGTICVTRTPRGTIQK
# T1 sequence (O14842 whole entry): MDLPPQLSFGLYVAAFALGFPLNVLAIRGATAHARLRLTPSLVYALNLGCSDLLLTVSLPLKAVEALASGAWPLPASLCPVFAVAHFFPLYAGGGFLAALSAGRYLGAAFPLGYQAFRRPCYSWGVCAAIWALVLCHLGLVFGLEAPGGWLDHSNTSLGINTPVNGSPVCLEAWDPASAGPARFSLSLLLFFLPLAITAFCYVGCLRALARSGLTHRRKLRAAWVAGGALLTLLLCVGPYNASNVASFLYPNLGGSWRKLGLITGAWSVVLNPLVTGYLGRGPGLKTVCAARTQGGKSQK
smiles,measurement,setting,value
"Cc1cc(OCCCS(C)(=O)=O)cc(C)c1-c1cccc(COc2ccc3c(c2)OC[C@H]3CC(=O)O)c1 [TAK-875, fasiglifam]",EC50,[1],> 37.5 µM
same,side effects,[2],suspected hepatic toxic side effects
[3H]c1cc([3H])c(OCc2nc(-n3cc(C)cn3)nc(N3CCOCC3)c2[3H])cc1F [[^3H]AZ1],Bmax,[3]; [6],15.8 pmol/mg protein
same,Kd,[3]; [6],26.4 nM
same,Kd,"[3]; human exocrine tissue, saturation binding 1 to 20 nM, n = 5, mean ± SEM",19.7 ± 8.4 nM
same,B max,"[3]; human exocrine tissue, saturation binding, n = 5, mean ± SEM",13.6 ± 2.5 pmol/mg protein
same,receptor specific binding,[3],below 1000 fmol/mg protein
same,higher FFAR1 binding in human islets compared to human exocrine tissue,[4]; 2 nM labeled ligand,30%
same,non-specific binding in different pancreatic compartments,[4]; human islets vs exocrine tissue,little difference
same,islet-to-exocrine ratio,[4]; 2 nM labeled ligand,1.3
same,Bmax,[4]; [7],6.3 pmol/mg protein
same,Kd,[4]; [7],15.8 nM
same,Kd,"[4]; human islets, saturation binding 1 to 20 nM, n = 3, mean ± SEM",10.6 ± 1.5 nM
same,B max,"[4]; human islets, saturation binding, n = 3, mean ± SEM",7.0 ± 2.0 pmol/mg protein
same,FFAR1 density by specific binding,[4]; 2 nM labeled ligand,approximately 1150 fmol/mg protein
same,off-target (non-displaceable) binding,[5],decreased; also recorded: least
same,specific bound radiolabeled ligand (FFAR1 density),[5],132 fmol/mg protein
same,specific binding,[5]; incubation dose 2 nM,approximately 50%
[3H]c1cc([3H])c(OCc2nc(-n3cc(C)cn3)nc(N3CCOCC3)c2[3H])cc1Cl [[^3H]AZ2],receptor specific binding,[3],below 1000 fmol/mg protein
same,islet-to-exocrine ratio,[4]; 2 nM labeled ligand,1.65
same,FFAR1 density by specific binding,[4]; 2 nM labeled ligand,approximately 1600 fmol/mg protein
same,off-target (non-displaceable) binding,[5],decreased
same,specific bound radiolabeled ligand (FFAR1 density),[5],177 fmol/mg protein
"[3H]c1cc2c(c([3H])c1OCc1cccc(-c3c(C)cc(OCCCS(C)(=O)=O)c([3H])c3C)c1)OC[C@H]2CC(=O)O [[^3H]TAK-875, reference compound]",off-target (non-displaceable) binding,[5],high non-specific off-target binding; also recorded: most off-target binding
same,measurement of FFAR1 density,[5]; 4 nM [3H]TAK-875,severely underestimated
